According to PubChem BioAssay AID1963974 (Molecular Pharmacology Branch, DTP, NCI, 2024):

Test system: 648629-189-R-J1-PDC spheroids with HUVEC/MSC, viability
Assay: Anticancer human tumor 648629-189-R-J1-PDC patient-derived bladder carcinoma cell line growth inhibition [PI3K]
Conditions: for IC50: curve of first compound; for viability, T/C: stronger effect = lower value
Summary of the method: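 Targeted small molecules plus PI3K inhibitors, half-log dose series from Cmax (default top 10 microM), were applied to heterotypic spheroids of cancer cells with HUVEC and MSCs. Viability indicated growth inhibition.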

[1] = second compound 0.0316 µM, first compound 0.0316 µM
[2] = second compound 0.0316 µM, first compound 0.1 µM
[3] = second compound 0.0316 µM, first compound 0.316 µM
[4] = second compound 0.0316 µM, first compound 1 µM
[5] = second compound 0.0316 µM, first compound 3.16 µM
[6] = second compound 0.0316 µM, first compound 10 µM
[7] = second compound 0.1 µM, first compound 0.0316 µM
[8] = second compound 0.1 µM, first compound 0.1 µM
[9] = second compound 0.1 µM, first compound 0.316 µM
[10] = second compound 0.1 µM, first compound 1 µM
[11] = second compound 0.1 µM, first compound 3.16 µM
[12] = second compound 0.1 µM, first compound 10 µM
[13] = second compound 0.316 µM, first compound 0.0316 µM
[14] = second compound 0.316 µM, first compound 0.1 µM
[15] = second compound 0.316 µM, first compound 0.316 µM
[16] = second compound 0.316 µM, first compound 1 µM
[17] = second compound 0.316 µM, first compound 3.16 µM
[18] = second compound 0.316 µM, first compound 10 µM
[19] = second compound 1 µM, first compound 0.0316 µM
[20] = second compound 1 µM, first compound 0.1 µM
[21] = second compound 1 µM, first compound 0.316 µM
[22] = second compound 1 µM, first compound 1 µM
[23] = second compound 1 µM, first compound 3.16 µM
[24] = second compound 1 µM, first compound 10 µM
[25] = second compound 3.16 µM, first compound 0.0316 µM
[26] = second compound 3.16 µM, first compound 0.1 µM
[27] = second compound 3.16 µM, first compound 0.316 µM
[28] = second compound 3.16 µM, first compound 1 µM
[29] = second compound 3.16 µM, first compound 3.16 µM
[30] = second compound 3.16 µM, first compound 10 µM
[31] = second compound 10 µM, first compound 0.0316 µM
[32] = second compound 10 µM, first compound 0.1 µM
[33] = second compound 10 µM, first compound 0.316 µM
[34] = second compound 10 µM, first compound 1 µM
[35] = second compound 10 µM, first compound 3.16 µM
[36] = second compound 10 µM, first compound 10 µM
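Further: spheroids exposed to agents for seven days before reading.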
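Wherever viability, T/C is given: percent of vehicle control luminescence where 100% = DMSO treated spheroids.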

## C=CC(=O)N1CCN(c2nc(=O)n(-c3c(C)ccnc3C(C)C)c3nc(-c4c(O)cccc4F)c(F)cc23)C(C)C1 (stereo not given) + CC(Nc1ncnc2nc[nH]c12)c1cc2cccc(Cl)c2c(=O)n1-c1ccccc1
Second compound 0.0316 µM
  IC50: > 10000 nM
Second compound 0.1 µM
  IC50: > 10000 nM
Second compound 0.316 µM
  IC50: > 10000 nM
Second compound 1 µM
  IC50: > 10000 nM
Second compound 3.16 µM
  IC50: > 10000 nM
Second compound 10 µM
  IC50: > 10000 nM
[1]
  viability, T/C: 106%
[2]
  viability, T/C: 95.3%
[3]
  viability, T/C: 107%
[4]
  viability, T/C: 109%
[5]
  viability, T/C: 103%
[6]
  viability, T/C: 96.9%
[7]
  viability, T/C: 102%
[8]
  viability, T/C: 101%
[9]
  viability, T/C: 125%
[10]
  viability, T/C: 104%
[11]
  viability, T/C: 108%
[12]
  viability, T/C: 87.5%
[13]
  viability, T/C: 95.4%
[14]
  viability, T/C: 115%
[15]
  viability, T/C: 112%
[16]
  viability, T/C: 103%
[17]
  viability, T/C: 112%
[18]
  viability, T/C: 103%
[19]
  viability, T/C: 120%
[20]
  viability, T/C: 99.3%
[21]
  viability, T/C: 107%
[22]
  viability, T/C: 107%
[23]
  viability, T/C: 101%
[24]
  viability, T/C: 92.1%
[25]
  viability, T/C: 103%
[26]
  viability, T/C: 92.1%
[27]
  viability, T/C: 104%
[28]
  viability, T/C: 101%
[29]
  viability, T/C: 106%
[30]
  viability, T/C: 98.8%
[31]
  viability, T/C: 94.2%
[32]
  viability, T/C: 86.9%
[33]
  viability, T/C: 96.4%
[34]
  viability, T/C: 95.6%
[35]
  viability, T/C: 89.8%
[36]
  viability, T/C: 88.3%

## CC(C)NCC(C(=O)N1CCN(c2ncnc3c2C(C)CC3O)CC1)c1ccc(Cl)cc1 (stereo not given) + CC(Nc1ncnc2nc[nH]c12)c1cc2cccc(Cl)c2c(=O)n1-c1ccccc1
Second compound 0.0316 µM
  IC50: 1050 nM
Second compound 0.1 µM
  IC50: 1520 nM
Second compound 0.316 µM
  IC50: 1140 nM
Second compound 1 µM
  IC50: 1230 nM
Second compound 3.16 µM
  IC50: 904 nM
Second compound 10 µM
  IC50: 1010 nM
[1]
  viability, T/C: 99.8%
[2]
  viability, T/C: 93.6%
[3]
  viability, T/C: 82%
[4]
  viability, T/C: 49.4%
[5]
  viability, T/C: 28.9%
[6]
  viability, T/C: 17.3%
[7]
  viability, T/C: 97.3%
[8]
  viability, T/C: 90.3%
[9]
  viability, T/C: 79.7%
[10]
  viability, T/C: 61.3%
[11]
  viability, T/C: 32.2%
[12]
  viability, T/C: 19.3%
[13]
  viability, T/C: 97.4%
[14]
  viability, T/C: 91.2%
[15]
  viability, T/C: 76.3%
[16]
  viability, T/C: 53.4%
[17]
  viability, T/C: 29.2%
[18]
  viability, T/C: 17.7%
[19]
  viability, T/C: 93.6%
[20]
  viability, T/C: 94.5%
[21]
  viability, T/C: 80.7%
[22]
  viability, T/C: 54.2%
[23]
  viability, T/C: 29.4%
[24]
  viability, T/C: 17.5%
[25]
  viability, T/C: 101%
[26]
  viability, T/C: 91.3%
[27]
  viability, T/C: 72.6%
[28]
  viability, T/C: 48.6%
[29]
  viability, T/C: 25.9%
[30]
  viability, T/C: 15.5%
[31]
  viability, T/C: 83.8%
[32]
  viability, T/C: 72.2%
[33]
  viability, T/C: 79.4%
[34]
  viability, T/C: 48.4%
[35]
  viability, T/C: 28.3%
[36]
  viability, T/C: 18.2%

## CCN1CCN(Cc2ccc(Nc3ncc(F)c(-c4cc(F)c5nc(C)n(C(C)C)c5c4)n3)nc2)CC1 + CC(Nc1ncnc2nc[nH]c12)c1cc2cccc(Cl)c2c(=O)n1-c1ccccc1
Second compound 0.0316 µM
  IC50: > 1000 nM
Second compound 0.1 µM
  IC50: > 1000 nM
Second compound 0.316 µM
  IC50: > 1000 nM
Second compound 1 µM
  IC50: > 1000 nM
Second compound 3.16 µM
  IC50: > 1000 nM
Second compound 10 µM
  IC50: > 1000 nM
Second compound 0.0316 µM, first compound 0.00316 µM
  viability, T/C: 90.1%
Second compound 0.0316 µM, first compound 0.01 µM
  viability, T/C: 96.2%
[1]
  viability, T/C: 105%
[2]
  viability, T/C: 111%
[3]
  viability, T/C: 113%
[4]
  viability, T/C: 122%
Second compound 0.1 µM, first compound 0.00316 µM
  viability, T/C: 107%
Second compound 0.1 µM, first compound 0.01 µM
  viability, T/C: 99.4%
[7]
  viability, T/C: 103%
[8]
  viability, T/C: 101%
[9]
  viability, T/C: 101%
[10]
  viability, T/C: 135%
Second compound 0.316 µM, first compound 0.00316 µM
  viability, T/C: 105%
Second compound 0.316 µM, first compound 0.01 µM
  viability, T/C: 96.3%
[13]
  viability, T/C: 98%
[14]
  viability, T/C: 108%
[15]
  viability, T/C: 113%
[16]
  viability, T/C: 109%
Second compound 1 µM, first compound 0.00316 µM
  viability, T/C: 106%
Second compound 1 µM, first compound 0.01 µM
  viability, T/C: 92.5%
[19]
  viability, T/C: 100%
[20]
  viability, T/C: 90.3%
[21]
  viability, T/C: 103%
[22]
  viability, T/C: 96.4%
Second compound 3.16 µM, first compound 0.00316 µM
  viability, T/C: 85.8%
Second compound 3.16 µM, first compound 0.01 µM
  viability, T/C: 106%
[25]
  viability, T/C: 86.8%
[26]
  viability, T/C: 88.2%
[27]
  viability, T/C: 111%
[28]
  viability, T/C: 105%
Second compound 10 µM, first compound 0.00316 µM
  viability, T/C: 85.6%
Second compound 10 µM, first compound 0.01 µM
  viability, T/C: 80.7%
[31]
  viability, T/C: 84.4%
[32]
  viability, T/C: 88%
[33]
  viability, T/C: 87%
[34]
  viability, T/C: 75.5%

## Cn1ncc(Cl)c1-c1cc(C(=O)NC(CN)Cc2cccc(F)c2)sc1Cl (stereo not given) + CC(Nc1ncnc2nc[nH]c12)c1cc2cccc(Cl)c2c(=O)n1-c1ccccc1
Second compound 0.0316 µM
  IC50: 991 nM
Second compound 0.1 µM
  IC50: 769 nM
Second compound 0.316 µM
  IC50: 708 nM
Second compound 1 µM
  IC50: 709 nM
Second compound 3.16 µM
  IC50: 646 nM
Second compound 10 µM
  IC50: 479 nM
[1]
  viability, T/C: 129%
[2]
  viability, T/C: 90.4%
[3]
  viability, T/C: 68.3%
[4]
  viability, T/C: 45.8%
[5]
  viability, T/C: 26.5%
[6]
  viability, T/C: 10.4%
[7]
  viability, T/C: 97.8%
[8]
  viability, T/C: 87.2%
[9]
  viability, T/C: 71.8%
[10]
  viability, T/C: 39.9%
[11]
  viability, T/C: 27.5%
[12]
  viability, T/C: 9.37%
[13]
  viability, T/C: 93.9%
[14]
  viability, T/C: 103%
[15]
  viability, T/C: 62.8%
[16]
  viability, T/C: 42.6%
[17]
  viability, T/C: 23.8%
[18]
  viability, T/C: 7.95%
[19]
  viability, T/C: 108%
[20]
  viability, T/C: 92.2%
[21]
  viability, T/C: 62.2%
[22]
  viability, T/C: 42.9%
[23]
  viability, T/C: 27.2%
[24]
  viability, T/C: 8.92%
[25]
  viability, T/C: 97.7%
[26]
  viability, T/C: 93.8%
[27]
  viability, T/C: 64.8%
[28]
  viability, T/C: 36.7%
[29]
  viability, T/C: 26.5%
[30]
  viability, T/C: 7.12%
[31]
  viability, T/C: 99.7%
[32]
  viability, T/C: 78.2%
[33]
  viability, T/C: 56.9%
[34]
  viability, T/C: 37.2%
[35]
  viability, T/C: 21.3%
[36]
  viability, T/C: 6.29%

## Cn1nccc1Nc1nccc(-c2ccn(C(CO)c3ccc(Cl)c(F)c3)c(=O)c2)n1 (stereo not given) + CC(Nc1ncnc2nc[nH]c12)c1cc2cccc(Cl)c2c(=O)n1-c1ccccc1
Second compound 0.0316 µM
  IC50: > 10000 nM
Second compound 0.1 µM
  IC50: > 10000 nM
Second compound 0.316 µM
  IC50: > 10000 nM
Second compound 1 µM
  IC50: > 10000 nM
Second compound 3.16 µM
  IC50: > 10000 nM
Second compound 10 µM
  IC50: > 10000 nM
[1]
  viability, T/C: 104%
[2]
  viability, T/C: 95.8%
[3]
  viability, T/C: 101%
[4]
  viability, T/C: 110%
[5]
  viability, T/C: 94%
[6]
  viability, T/C: 86.5%
[7]
  viability, T/C: 101%
[8]
  viability, T/C: 88.9%
[9]
  viability, T/C: 102%
[10]
  viability, T/C: 105%
[11]
  viability, T/C: 100%
[12]
  viability, T/C: 88.4%
[13]
  viability, T/C: 116%
[14]
  viability, T/C: 96.2%
[15]
  viability, T/C: 96.8%
[16]
  viability, T/C: 88.7%
[17]
  viability, T/C: 101%
[18]
  viability, T/C: 80.4%
[19]
  viability, T/C: 104%
[20]
  viability, T/C: 93.9%
[21]
  viability, T/C: 101%
[22]
  viability, T/C: 105%
[23]
  viability, T/C: 102%
[24]
  viability, T/C: 79.3%
[25]
  viability, T/C: 88.5%
[26]
  viability, T/C: 103%
[27]
  viability, T/C: 100%
[28]
  viability, T/C: 100%
[29]
  viability, T/C: 93%
[30]
  viability, T/C: 73.6%
[31]
  viability, T/C: 86.5%
[32]
  viability, T/C: 80.6%
[33]
  viability, T/C: 79.9%
[34]
  viability, T/C: 90.8%
[35]
  viability, T/C: 97.7%
[36]
  viability, T/C: 78.5%
